# What was measured:
# [1] = tested on: ICR mice; assay: Writhing test (acetic acid); type: in vivo; details: Mus musculus, po, 1 h
# Protocol: To examine the pain relief effect of the phenyl carbamate compounds, a writhing test was conducted in general pain animal model referring to Fischer, L. G. et al. (2008).
# (§1) ICR mice (male, 24-28 g; Orient Bio, Korea) were habituated before test in test room for 1 hour Animals were fasted 2 hr, before administration of compounds. Each of Compound 1, 2, 3, 4, 5, 63, 65, and 67 was orally administered at the dose of 20 mg/kg, 10 ul/g, bw (n=3˜5/group). All compounds were dissolved in a vehicle of 30% (v/v) PEG 400 or 20% (v/v) Tween 80. The control group was treated the vehicle without compounds.
# One hour after the administration of Compounds, 0.6% acetic acid at the dose of 10 ul/g, bw was injected into the mice. Animals were habituated in the cage for 5 min 5 min after habituation, the number of writhes (abdominal constriction) for 15 min was counted referring to Korzeniewska-Rybicka, I. et al. (1998) and compared with that of a control.
# [2] = tested on: ICR mice; assay: Hot-plate test; type: in vivo; details: withdrawal latency relative to vehicle control, 150 mg/kg po, hot plate 55±1° C.
# Protocol: To examine the pain relief effect of the phenyl carbamate compounds, a hot-plate test was conducted in general pain animal model referring to Current Protocols in Neuroscience; Behavioral Neuroscience Unit 8.9.
# as §1, with “(male, 30-35” for “(male, 24-28”, “2 hr” for “2 hr,”, “of 150” for “of 20”, “bw (n=7˜10/group).” for “bw (n=3˜5/group).”
# 0.5 hr after the administration of compounds, the mice were put on a hot plate pre-heated to 55±1° C. (Hu, X. et al, 2008), and then, measured as the withdrawal latency (cut-off time: 30 sec) time until the point when each mouse was taking off a paw from the plate, shaking, licking a paw or hind leg, or jumping from the plate.
# [3] = tested on: SNL model in rats; assay: Antiallodynic activity on Chung model (SNL, spinal nerve ligation), von Frey; type: in vivo, Sprague-Dawley rats; details: Rattus norvegicus, po, 1 h
# Protocol: Male Sprague-Dawley rats (200-220 g, Orient Bio, Korea) were habituated for 1 week before the experiment and allowed free access to food and water throughout the experimentation. Room temperature and humidity were maintained at 24±2° C. and 50±10%, respectively. Neuropathic surgery (SNL, Spinal nerve ligation) model was done as described in Kim and Chung (1992). Briefly, animal under gaseous anesthesia with isoflurane a 4:4 flow ratio of NO2. The left lumber spinal nerve L5 and L6 were isolated and tightly ligated with 4˜0 silk thread. The wound was treated with a gentamicin antibiotics solution (4 mg/kg, 4 ul/g, bw), and the wound muscle was closed with cat cut chrome 4/0 thread and skin was closed dafilon 4/0 tread. Sham controls were prepared in the same manner as the spinal nerves were exposed, but no ligated L5 and L6 nerves. But, vehicle controls were identical to SNL model, except for administration of vehicles.
# Tactile sensitivity (Mechanical allodynia) was evaluated using von Frey monofilaments before and after treatment and animals were used withdrawal threshold value was less than 4 g. […] The tactile sensitivity for ipsilateral hind paw was measured using the up-and-down method (Dixon, 1980) with seven von Frey monofilaments (0.4, 1, 2, 4, 6, 8, and 15 g) to 3 trials. […] The 50% paw withdrawal threshold for each paw was calculated using the following formula: [Xth] log=[vFr] log+ky where [vFr] is the force of the last von Frey used, k=0.2249 which is the average interval (in log units) between the von Frey monofilaments, and y is a value that depends upon the pattern of withdrawal responses (Dixon, 1980).
# All animals were fasted 18 h before the administration of the compounds. Antiallodynic effect of compounds of Examples 1, 63 and 65 were evaluated at the dose of 5, 10 and 30 mg/kg (n=5˜6), orally administrated in a volume of 5 ul/g, bw in a vehicle of 30% (v/v) PEG 400 (Examples 1 and 63) or 20% (v/v) Tween 80 (Example 65). […]
# [4] = tested on: CFA-induced pain model in rats; assay: Antiallodynic activity on Complete Freund's Adjuvant (CFA)-induced inflammatory pain model, von Frey; type: in vivo, Sprague-Dawley rats; details: 0.5 hr, paw withdrawal threshold relative to sham
# Protocol: Male, Sprague-Dawley rats (200-220 g, Nara Bio, Korea) were habituated for 1 week before surgery and allowed free access to food and water throughout the experimentation. Room temperature and humidity were maintained at 24±2° C. and 50±10%, respectively.
# CFA-induced inflammatory pain was induced by the procedure of Nagakura et al. (2003) and Gregory P. et al. (2010) with minor modifications. CFA (sigma, USA) was injected in the right plantar with a 100 ul volume under gaseous anesthesia with isoflurane a 4:4 flow ratio of NO2. Sham controls were injected with 100 ul of saline and vehicle controls were identical to CFA infusion model, except for administration of vehicles.
# Tactile sensitivity (Mechanical allodynia) was evaluated using von Frey monofilaments before and after treatment, and animals were used withdrawal threshold value was less than 4 g. One week after surgery, CFA-infused animals (n=4˜6), sham-operated animals (n=12), and vehicle-operated animals (n=17) were tested for tactile sensitivity with von Frey monofilaments 3 trials in each animal. All Animals were placed in a stainless steel mashed chamber and habituated for 30 min in the test box. The tactile sensitivity for ipsilateral hind paw was measured using the up-and-down method (Dixon, 1980) with seven von Frey monofilaments (0.4, 1, 2, 4, 6, 8, and 15 g) to 3 trials. […] The 50% paw withdrawal threshold for each paw was calculated using the following formula: [Xth] log=[vFr] log+ky where [vFr] is the force of the last von Frey used, k=0.2249 which is the average interval (in log units) between the von Frey monofilaments, and y is a value that depends upon the pattern of withdrawal responses (Dixon, 1980).
# Antiallodynic effect of compound of Example 1 was evaluated at the dose of 10, 30 and 60 mg/kg (n=4˜6), intraperitoneally administrated in a volume of 5 ul/g bw in a vehicle of 30% (v/v) PEG. […]
# The relative values compared to the sham (% control) were calculated and shown in Table 7 and FIG. 7, which show an antiallodynic effect of Compound 1 on CFA-induced pain model in rats.
structure (smiles),measurement,setting,value
"C[C@H](OC(N)=O)[C@@H](O)c1ccccc1Cl [Example 1, 1-(2-chlorophenyl)-(S)-1-hydroxypropyl-(S)-2-carbamate]",ED50,[1],14.1 mg/kg
same,"Hot-plate test (150 mg/kg, 0.5 h, po) % Control",[2],135.7%
same,ED50,[3],11.1 mg/kg
same,% Control (CFA-induced pain model),[4]; dose 10 mg/kg intraperitoneally,12.5%
same,% Control (CFA-induced pain model),[4]; dose 30 mg/kg intraperitoneally,40.0%
same,% Control (CFA-induced pain model),[4]; dose 60 mg/kg intraperitoneally,73.7%
